Test results: PMC4724249 (European journal of medicinal chemistry, 2015)

Columns and labels:
[1] = test system: a variety of fungi and Gram-positive bacteria; conditions: cited from earlier work
[2] = test system: MRSA CBD-635 and P. aeruginosa USF-1423; assay: MIC of reference antibiotics at the start of serial passage; assay type: cell-based; conditions: organism not stated in the legend of Figure 4

Molecule | MICs [1] [µg/mL] | MIC of reference antibiotic [2] [µM]
fusaricidin A | 0.78 to 3.12 | –
CN[C@H](CC(C)C)C(=O)N[C@H]1C(=O)N[C@@H](CC(N)=O)C(=O)N[C@H]2C(=O)N[C@H]3C(=O)N[C@H](C(=O)N[C@H](C(=O)O)c4cc(O)cc(O)c4-c4cc3ccc4O)[C@H](O)c3ccc(c(Cl)c3)Oc3cc2cc(c3O[C@@H]2O[C@H](CO)[C@@H](O)[C@H](O)[C@H]2O[C@H]2C[C@](C)(N)[C@H](O)[C@H](C)O2)Oc2ccc(cc2Cl)[C@H]1O [Vancomycin] | – | 7
O=C(O)c1cn(C2CC2)c2cc(N3CCNCC3)c(F)cc2c1=O [ciprofloxacin] | – | 30
